PMC4199533, “Toxicological and biochemical characterizations of AChE in phosalone-susceptible and resistant populations of the common pistachio psyllid, Agonoscena pistaciae” (Journal of Insect Science, 2014)
Where two headings read alike, the source gives them in different places.

Key:
[1] = tested on: T1, AChE (Bam population, susceptible); assay: Ellman microplate kinetics, Michaelis-Menten fit; assay type: biochemical, Agonoscena pistaciae; conditions: DTNB; pH 7.0; 37°C; 405 nm; apparent, total AChE
T1 construct: gene AChE1
Description: Ellman microplate kinetics, Michaelis-Menten fit on AChE (Bam population, susceptible)

[2] = tested on: T2, AChE (Rafsanjan population, resistant; modified AChE); conditions: DTNB; pH 7.0; 37°C; 405 nm; apparent, total AChE
T2 construct: gene AChE1
Description: Ellman microplate kinetics, Michaelis-Menten fit on AChE (Rafsanjan population, resistant; modified AChE)

[3] = tested on: T1, AChE (Bam population, susceptible); assay: Ellman microplate inhibition assay; assay type: biochemical, Agonoscena pistaciae; conditions: pH 7.0; 10 min preincubation at room temperature; thiocholine substrate and DTNB; covalent; read-out: I50
Description: Ellman microplate inhibition assay on AChE (Bam population, susceptible)

[4] = tested on: T2, AChE (Rafsanjan population, resistant; modified AChE); conditions: read-out: I50, pH 7.0, 10 min preincubation at room temperature, thiocholine substrate and DTNB, covalent
Description: Ellman microplate inhibition assay on AChE (Rafsanjan population, resistant; modified AChE)

SMILES	Km [1] [µM]	Km [2] [µM]	IC50 [3] [µM]	IC50 [4] [µM]	IC50 ([4]; stated gain) [µM]
CCC(=O)SCC[N+](C)(C)C [PTC, propionylthiocholine iodide]	1.4 ± 0.11	4.1 ± 0.06	–	–	–
CCCC(=O)SCC[N+](C)(C)C [BTC, butyrylthiocholine iodide]	4.3 ± 0.14	–	–	–	–
CNC(=O)Oc1cccc2c1OC(C)(C)C2 [carbofuran]	–	–	380 ± 10	160 ± 10	–
CNC(=O)Oc1cccc2ccccc12 [carbaryl]	–	–	2360 ± 20	2050 ± 30	–
CNC(=O)Oc1ccccc1OC(C)C [propoxur]	–	–	1060 ± 30	830 ± 10	–
CNC(=O)Oc1cccc(C)c1 [MTMC, m-tolyl methyl carbamate]	–	–	20430 ± 170	9450 ± 30	–
CCN(CC)C(=O)C(Cl)=C(C)OP(=O)(OC)OC [phosphamidon]	–	–	220 ± 10	–	4790 ± 20
CNC(=O)O/N=C/C(C)(C)SC [aldicarb]	–	–	2590 ± 20	2850 ± 60	–
CNC(=O)/C=C(\C)OP(=O)(OC)OC [monocrotophos]	–	–	230 ± 10	–	5280 ± 40
CC(=O)SCC[N+](C)(C)C [ATC, acetylthiocholine iodide]	1.25 ± 0.05	–	–	–	–
